Experimental data from patent publication US8399465B2, “Compounds with two fused bicyclic heteroaryl moieties as modulators of leukotriene A4 hydrolase” (Janssen Pharmaceutica NV, priority 2009, dated 2013).
Structures can show the parent of a compound that is named as a salt.

How the values were obtained:
[1] = tested on: LTB4 production in murine blood (LTA4H); assay: LTB4 production by calcium ionophore-stimulated murine blood for LTA4H inhibitor activity; format: cell-based, CD-1 mice; conditions: Mus musculus; murine blood diluted 1 in 15, A23187 stimulated; single determination or average; mark after value = form tested: ′ free base, ″ hydrochloride, ^ formate; read-out: IC50
Outline: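 LTB4 was measured by ELISA in supernatants after calcium ionophore A23187 stimulation (final 7 μg/mL, 30 min, 37° C) of CD-1 mouse blood collected on heparin. Compound was preincubated with the blood for 15 min beforehand. Values come from one determination or average several.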

[2] = molecular target: T1, recombinant human LTA4 hydrolase (rhLTA4H) (Homo sapiens, UniProt P09960); assay: Recombinant human LTA4 hydrolase assay for LTA4 hydrolase inhibitor activity; format: biochemical; conditions: rhLTA4H, LTB4 by immunoassay; single determination or average of two or more; mark after value = form tested: ′ free base, ″ hydrochloride, ^ formate; read-out: IC50
T1 construct: made in house; host or cells: Spodoptera frugiperda (Sf-9) cells, baculovirus (pFastBac1)
T1 sequence (P09960 1-611): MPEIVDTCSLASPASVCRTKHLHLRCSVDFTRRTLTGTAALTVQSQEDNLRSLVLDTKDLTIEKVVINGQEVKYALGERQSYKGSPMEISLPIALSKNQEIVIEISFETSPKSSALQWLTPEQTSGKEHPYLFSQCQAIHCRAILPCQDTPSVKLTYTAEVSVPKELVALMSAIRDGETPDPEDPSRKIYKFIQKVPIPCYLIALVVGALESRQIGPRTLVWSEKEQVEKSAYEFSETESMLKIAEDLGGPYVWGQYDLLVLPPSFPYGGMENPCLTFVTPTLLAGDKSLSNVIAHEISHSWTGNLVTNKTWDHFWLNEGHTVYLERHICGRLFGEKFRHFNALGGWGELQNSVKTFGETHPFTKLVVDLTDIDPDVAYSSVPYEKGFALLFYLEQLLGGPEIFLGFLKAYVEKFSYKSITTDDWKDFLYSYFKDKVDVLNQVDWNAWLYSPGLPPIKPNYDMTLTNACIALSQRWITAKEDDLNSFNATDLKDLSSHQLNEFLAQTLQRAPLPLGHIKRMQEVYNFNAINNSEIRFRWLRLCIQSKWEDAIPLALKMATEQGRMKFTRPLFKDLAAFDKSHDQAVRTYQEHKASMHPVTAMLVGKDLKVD
Outline: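 LTB4 formation, measured by enzyme immunoassay, was the read-out. The enzyme, recombinant human LTA4H expressed in Sf-9 insect cells (10 ng per reaction), was exposed to compound for 10 min at room temperature before hydrolysed-ester LTA4 substrate was added for 30 min. Enzyme-free negatives were included.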

Compound | IC50 [1] [nM] | IC50 [2] [nM]
CN(C)C1CCN(Cc2coc3cc(Oc4nc5ncccc5s4)ccc23)CC1 [Example 282, Dimethyl-{1-[6-(thiazolo[4,5-b]pyridin-2-yloxy)-benzofuran-3-ylmethyl]-piperidin-4-yl}-amine formate] | 72 | 17
c1cnc2nc(Oc3ccc4c(CN5CCC(N6CCCC6)CC5)coc4c3)sc2c1 [Example 283, 2-[3-(4-Pyrrolidin-1-yl-piperidin-1-ylmethyl)-benzofuran-6-yloxy]-thiazolo[4,5-b]pyridine formate] | 130 | 35
c1cnc2nc(Oc3ccc4c(CN5CCC(N6CCCCC6)CC5)coc4c3)sc2c1 [Example 284, 1′-[6-(Thiazolo[4,5-b]pyridin-2-yloxy)-benzofuran-3-ylmethyl]-[1,4′]bipiperidinyl formate] | 160 | 24
c1cnc2nc(Oc3ccc4c(CN5CCC(N6CCOCC6)CC5)coc4c3)sc2c1 [Example 285, 2-[3-(4-Morpholin-4-yl-piperidin-1-ylmethyl)-benzofuran-6-yloxy]-thiazolo[4,5-b]pyridine formate] | 50 | 16
c1ccc(N2CCN(Cc3coc4cc(Oc5nc6ncccc6s5)ccc34)CC2)cc1 [Example 287, 2-[3-(4-Phenyl-piperazin-1-ylmethyl)-benzofuran-6-yloxy]-thiazolo[4,5-b]pyridine formate] | 240 | 26
COc1ccc(N2CCN(Cc3coc4cc(Oc5nc6ncccc6s5)ccc34)CC2)cc1 [Example 290, 2-{3-[4-(4-Methoxy-phenyl)-piperazin-1-ylmethyl]-benzofuran-6-yloxy}-thiazolo[4,5-b]pyridine formate] | 170 | 40
CC(=O)N1[C@@H]2CC[C@H]1CN(Cc1coc3cc(Oc4nc5ncccc5s4)ccc13)C2 [Example 295, meso-1-{3-[6-(Thiazolo[4,5-b]pyridin-2-yloxy)-benzofuran-3-ylmethyl]-3,8-diaza-bicyclo[3.2.1]oct-8-yl}-ethanone formate] | 55 | 4
c1cnc2nc(Oc3ccc4c(CNC5CC5)coc4c3)sc2c1 [Example 297, Cyclopropyl-[6-(thiazolo[4,5-b]pyridin-2-yloxy)-benzofuran-3-ylmethyl]-amine] | 240 | 19
c1cnc2nc(Oc3ccc4c(CNC5CCCC5)coc4c3)sc2c1 [Example 298, Cyclopentyl-[6-(thiazolo[4,5-b]pyridin-2-yloxy)-benzofuran-3-ylmethyl]-amine] | 17 | 12
c1cnc2nc(Oc3ccc4c(CNC5CCCCC5)coc4c3)sc2c1 [Example 299, Cyclohexyl-[6-(thiazolo[4,5-b]pyridin-2-yloxy)-benzofuran-3-ylmethyl]-amine] | 12 | 16
CC(C)(C)NCc1coc2cc(Oc3nc4ncccc4s3)ccc12 [Example 301, tert-Butyl-[6-(thiazolo[4,5-b]pyridin-2-yloxy)-benzofuran-3-ylmethyl]-amine formate] | 4 | 15
CC(C)CNCc1coc2cc(Oc3nc4ncccc4s3)ccc12 [Example 304, Isobutyl-[6-(thiazolo[4,5-b]pyridin-2-yloxy)-benzofuran-3-ylmethyl]-amine formate] | 24 | 3
OC[C@@H]1CCCN1Cc1coc2cc(Oc3nc4ccccc4s3)ccc12 [Example 312, (S)-{1-[6-(Benzothiazol-2-yloxy)-benzofuran-3-ylmethyl]-pyrrolidin-2-yl}-methanol] | 160 | 22
CCCOC1CN(Cc2coc3cc(Oc4nc5ncccc5s4)ccc23)C1 [Example 314, 2-[3-(3-Propoxy-azetidin-1-ylmethyl)-benzofuran-6-yloxy]-thiazolo[4,5-b]pyridine] | 28 | 15
OC1CN(Cc2coc3cc(Oc4nc5ncccc5s4)ccc23)C1 [Example 315, 1-[6-(Thiazolo[4,5-b]pyridin-2-yloxy)-benzofuran-3-ylmethyl]-azetidin-3-ol] | 34 | 10
c1ccc(CCNCc2coc3cc(Oc4nc5ncccc5s4)ccc23)cc1 [Example 321, Phenethyl-[6-(thiazolo[4,5-b]pyridin-2-yloxy)-benzofuran-3-ylmethyl]-amine formate] | 51 | 40
CC(=O)N(C1CC1)C1CCN(Cc2coc3cc(Oc4nc5ncccc5s4)ccc23)CC1 [Example 322, N-Cyclopropyl-N-{1-[6-(thiazolo[4,5-b]pyridin-2-yloxy)-benzofuran-3-ylmethyl]-piperidin-4-yl}-acetamide] | 30 | 6
CC(=O)N(C(C)C)C1CCN(Cc2coc3cc(Oc4nc5ncccc5s4)ccc23)CC1 [Example 323, N-Isopropyl-N-{1-[6-(thiazolo[4,5-b]pyridin-2-yloxy)-benzofuran-3-ylmethyl]-piperidin-4-yl}-acetamide] | 41 | 9

Next, values leading:

IC50 [1] [nM] | IC50 [2] [nM] | Compound
77 | 28 | CC1CC(C)CN(Cc2coc3cc(Oc4nc5ncccc5s4)ccc23)C1 (stereo not drawn) [Example 281, 2-[3-(3,5-Dimethyl-piperidin-1-ylmethyl)-benzofuran-6-yloxy]-thiazolo[4,5-b]pyridine formate]
55 | 1 | CC1CCN(Cc2coc3cc(Oc4nc5ncccc5s4)ccc23)CC1 [Example 286, 2-[3-(4-Methyl-piperidin-1-ylmethyl)-benzofuran-6-yloxy]-thiazolo[4,5-b]pyridine formate]
170 | 19 | c1ccc(N2CCN(Cc3coc4cc(Oc5nc6ncccc6s5)ccc34)CC2)nc1 [Example 288, 2-[3-(4-Pyridin-2-yl-piperazin-1-ylmethyl)-benzofuran-6-yloxy]-thiazolo[4,5-b]pyridine formate]
40 | 4 | c1cnc2nc(Oc3ccc4c(CN5CCN(c6ccncc6)CC5)coc4c3)sc2c1 [Example 289, 2-[3-(4-Pyridin-4-yl-piperazin-1-ylmethyl)-benzofuran-6-yloxy]-thiazolo[4,5-b]pyridine formate]
130 | 14 | c1ccc(CCN2CCN(Cc3coc4cc(Oc5nc6ncccc6s5)ccc34)CC2)cc1 [Example 291, 2-[3-(4-Phenethyl-piperazin-1-ylmethyl)-benzofuran-6-yloxy]-thiazolo[4,5-b]pyridine formate]
150 | 20 | c1csc(CNCc2coc3cc(Oc4nc5ncccc5s4)ccc23)c1 [Example 300, [6-(Thiazolo[4,5-b]pyridin-2-yloxy)-benzofuran-3-ylmethyl]-thiophen-2-ylmethyl-amine]
78 | 20 | CC(C)(C)C1CCN(Cc2coc3cc(Oc4nc5ncccc5s4)ccc23)CC1 [Example 302, 2-[3-(4-tert-Butyl-piperidin-1-ylmethyl)-benzofuran-6-yloxy]-thiazolo[4,5-b]pyridine formate]
15 | 11 | CCCNCc1coc2cc(Oc3nc4ncccc4s3)ccc12 [Example 303, Propyl-[6-(thiazolo[4,5-b]pyridin-2-yloxy)-benzofuran-3-ylmethyl]-amine formate]
10 | 95 | c1cnc2nc(Oc3ccc4c(CNCCN5CCOCC5)coc4c3)sc2c1 [Example 306, (2-Morpholin-4-yl-ethyl)-[6-(thiazolo[4,5-b]pyridin-2-yloxy)-benzofuran-3-ylmethyl]-amine formate]
71 | 9 | CC(C)CN1CCN(Cc2coc3cc(Oc4nc5ncccc5s4)ccc23)CC1 [Example 308, 2-[3-(4-Isobutyl-piperazin-1-ylmethyl)-benzofuran-6-yloxy]-thiazolo[4,5-b]pyridine formate]
36 | 13 | CC(=O)N[C@H]1CCN(Cc2coc3cc(Oc4nc5ncccc5s4)ccc23)C1 [Example 310, (S)—N-{1-[6-(Thiazolo[4,5-b]pyridin-2-yloxy)-benzofuran-3-ylmethyl]-pyrrolidin-3-yl}-acetamide]
120 | 29 | FC1(F)CN(Cc2coc3cc(Oc4nc5ncccc5s4)ccc23)C1 [Example 316, 2-[3-(3,3-Difluoro-azetidin-1-ylmethyl)-benzofuran-6-yloxy]-thiazolo[4,5-b]pyridine]
